Experimental findings from paper PMC11850406, “Large-scale screening of HIV-1 T-cell epitopes restricted by 12 prevalent HLA-A allotypes in Northeast Asia and universal detection of HIV-1-specific CD8^+ T cells” (Frontiers in Microbiology, 2025) are described below.

pIC50: −log10 of the molar value. Like-named read-outs stand apart in the source and are kept apart here. Where no end group is shown, it is not given here.

In one assay the target is T1, HLA-A3101 (Homo sapiens, UniProt P04439, A270S/D185E/E176V/E277Q/F33T/G231S/G80R/H175R/I121M/I218V/I322F/K168Q/L300P/L318F/M331R/P217A/Q94H/R138Q/T323A/T345S/T97I/V358M).
T1 construct: expressed in transfected cells; host or cells: HMy2.CIR
As to the kind of experiment: Peptide competitive binding assay, HMy2.CIR cells expressing A3101. The settings on record: for inhibition at 5 µM / 5-μM inhibition (%): peptide 5 μM vs FITC-labeled reference peptide 300 nM; for inhibition at 5 µM / inhibition at 15 µM / 5-μM inhibition (%) / 15-μM inhibition (%): 24 h, 4°C, flow cytometry; for inhibition at 15 µM / 15-μM inhibition (%): peptide 15 μM vs FITC-labeled reference peptide 300 nM; for pIC50: read-out: Affinity. On the technique in general: A flow cytometer gives signals particle by particle.

The target of the next assay is HLA-A3303 (Homo sapiens, UniProt P04439, A270S/D185E/E176V/E277Q/E87N/F33T/G231S/H175R/I121M/I218V/I322F/K168Q/L300P/L318F/M331R/P217A/Q86R/Q94H/R138Q/T323A/T345S/T97I/V358M). Put plainly: Peptide competitive binding assay, HMy2.CIR cells expressing A3303. Conditions: for inhibition at 5 µM / inhibition at 15 µM: A3303, 24 h, 4°C, flow cytometry; for inhibition at 5 µM: peptide 5 μM vs FITC-labeled reference peptide 300 nM; for inhibition at 15 µM: peptide 15 μM vs FITC-labeled reference peptide 300 nM; for pIC50: read-out: Affinity.

Another assay addresses HLA-A1102 (Homo sapiens, UniProt P04439, A114D/D185E/E176A/E43K/F33Y/L180Q/S129P/T187R). Put plainly: cell-based. In kind it is binding. Conditions: for inhibition at 5 µM: read-out: 5-μM inhibition (%); for inhibition at 15 µM: read-out: 15-μM inhibition (%).
The next assay addresses T2, HLA-A0203 (Homo sapiens, UniProt P04439, A173T/D140Y/D185E/D98H/E277Q/G131W/G231S/I119V/I121R/I166T/I218V/L180W/L300P/L318F/N151K/N90K/P208A/P217A/Q86G/Q94H/R138H/R169H/T345S).
T2 construct: expressed in transfected cells; host or cells: HMy2.CIR
As to the kind of experiment: cell-based. In kind it is binding. The settings on record: A0203; for 5-μM inhibition (%) / inhibition at 5 µM: peptide 5 μM vs FITC-labeled reference peptide 300 nM; for 5-μM inhibition (%) / 15-μM inhibition (%) / inhibition at 5 µM / inhibition at 15 µM: 24 h, 4°C, flow cytometry; for 15-μM inhibition (%) / inhibition at 15 µM: peptide 15 μM vs FITC-labeled reference peptide 300 nM; for inhibition at 5 µM: read-out: 5-μM inhibition (%); for inhibition at 15 µM: read-out: 15-μM inhibition (%).

The target in a further assay is T3, HLA-A0201 (Homo sapiens, UniProt P04439, D140Y/D185E/D98H/E176V/E277Q/G131W/G231S/I119V/I121R/I166T/I218V/L300P/L318F/N151K/N90K/P208A/P217A/Q86G/Q94H/R138H/R169H/T345S).
T3 construct: expressed in transfected cells; host or cells: HMy2.CIR
Put plainly: cell-based. Conditions: A0201; for 5-μM inhibition (%) / inhibition at 5 µM: peptide 5 μM vs FITC-labeled reference peptide 300 nM; for 5-μM inhibition (%) / 15-μM inhibition (%) / inhibition at 5 µM / inhibition at 15 µM: 24 h, 4°C, flow cytometry; for 15-μM inhibition (%) / inhibition at 15 µM: peptide 15 μM vs FITC-labeled reference peptide 300 nM; for pIC50: class from inhibition at 5 and 15 μM of FITC-labeled reference peptide binding, read-out: Affinity; for inhibition at 5 µM: read-out: 5-μM inhibition (%); for inhibition at 15 µM: read-out: 15-μM inhibition (%). The class given is binding.

In the next assay the target is T4, HLA-A1101 (Homo sapiens, UniProt P04439, A114D/D185E/E176A/F33Y/L180Q/S129P/T187R).
T4 construct: expressed in transfected cells; host or cells: HMy2.CIR
Put plainly: cell-based. In kind it is binding. The settings on record: for inhibition at 5 µM / inhibition at 15 µM: A1101, 24 h, 4°C, flow cytometry; for inhibition at 5 µM: peptide 5 μM vs FITC-labeled reference peptide 300 nM, read-out: 5-μM inhibition (%); for inhibition at 15 µM: peptide 15 μM vs FITC-labeled reference peptide 300 nM, read-out: 15-μM inhibition (%).

[1] abbreviates: A1102, peptide 5 μM vs FITC-labeled reference peptide 300 nM, 24 h, 4°C, flow cytometry.
Where [2] appears, read: A1102, peptide 15 μM vs FITC-labeled reference peptide 300 nM, 24 h, 4°C, flow cytometry.

By inhibition is commonly meant how much of the control response was suppressed. Consider MTKILEPFR [Peptide P102], for which the values for the inhibition at 5 µM on HLA-A3101 (A3101) and at HLA-A3303 were 60.2% and 69.5%, respectively. In addition, the values for the inhibition at 15 µM on HLA-A3101 (A3101) and on HLA-A3303 were 88.3% and 70%, respectively. For the same sequence, the pIC50 on HLA-A3101 and on HLA-A3303 was greater than 5.30 throughout.

With MVHQPISPR [Peptide P103], the inhibition at 5 µM at HLA-A3101 (A3101) came out at 65.4%; on HLA-A1102 (setting [1]), 3.81%; on HLA-A3303, 70.2%. In addition, the inhibition at 15 µM on HLA-A3101 (A3101) is 79.2%; on HLA-A1102 (setting [2]) it was 13.4%; on HLA-A3303, 99.5%. The pIC50 on HLA-A3101 and on HLA-A3303 was greater than 5.30 throughout.

NLKTGKYAR [Peptide P101]: at HLA-A3101 (A3101), the “5-μM inhibition (%)” value came to 32.90% and the “15-μM inhibition (%)” value is 41.10%.

Take QMQEDVISL [Peptide P4]: at HLA-A0203, the “5-μM inhibition (%)” value worked out at 0.00% and the “15-μM inhibition (%)” value stood at 0.00%. Also, on HLA-A0201, the “5-μM inhibition (%)” value stood at 10.81% and the “15-μM inhibition (%)” value amounted to 44.70%.

For the sequence RAKRRVVER [Peptide P98], the pIC50 at HLA-A3101 (A3101, class from inhibition at 5 and 15 μM of FITC-labeled reference peptide binding) is 4.82 to 5.30. At HLA-A3101 (A3101), the inhibition at 5 µM came out at 47.9% and at 15 µM the inhibition was 82%.

Consider RANSPTSRK [Peptide P88], for which the “5-μM inhibition (%)” value at HLA-A1102 (setting [1]) was found to be 0.00%. Besides, the “15-μM inhibition (%)” value at HLA-A1102 (setting [2]) was determined as 0.35%.

In the case of RIKCFNCGR [Peptide P96], on HLA-A3101 (A3101), the “5-μM inhibition (%)” value was found to be 0.00% and the “15-μM inhibition (%)” value was 0.00%.

For the sequence RSNFKGSKR [Peptide P97], on HLA-A3101 (A3101), the inhibition at 5 µM came out at 66.6% and the inhibition at 15 µM was determined as 92.9%. Moreover, the pIC50 on HLA-A3101 is greater than 5.30.

In the case of SILDIRQGPK [Peptide P33], the pIC50 against HLA-A1102 was 4.82 to 5.30; against HLA-A1101, greater than 5.30. In addition, the inhibition at 5 µM was determined as 16.8% at HLA-A1102 (setting [1]) and 83.2% on HLA-A1101. In addition, the inhibition at 15 µM is 50.6% at HLA-A1102 (setting [2]) and 93.1% at HLA-A1101.

For SLAEGEIII [Peptide P3], the pIC50 was 4.82 to 5.30 on HLA-A0203 (class from inhibition at 5 and 15 μM of FITC-labeled reference peptide binding, read-out: Affinity); 4.82 to 5.30 on HLA-A0201. The inhibition at 5 µM at HLA-A0203 came out at 0.12%; at HLA-A0201 it was 26.1%. Moreover, the inhibition at 15 µM on HLA-A0203 worked out at 51.1%; at HLA-A0201, 66.2%.

On to SLVDTIAIAV [Peptide P1], for which, at HLA-A0203, the inhibition at 5 µM was 28.2% and the inhibition at 15 µM worked out at 31.9%. Moreover, at HLA-A0201, the pIC50 is 4.82 to 5.30, the inhibition at 5 µM is 38% and the inhibition at 15 µM turned out to be 78.5%.

As for TSLPKQEQK [Peptide P31], on HLA-A1102 (setting [1]), the inhibition at 5 µM is 4.16%. In addition, the inhibition at 15 µM on HLA-A1102 (setting [2]) came out at 18%. Further, on HLA-A1101, the pIC50 was greater than 5.30, the inhibition at 5 µM amounted to 75.2% and the inhibition at 15 µM stood at 86.5%.

Consider VTGIRKNYR [Peptide P99], for which, on HLA-A3101 (A3101), the “5-μM inhibition (%)” value is reported as 0.00% and the “15-μM inhibition (%)” value came to 15.00%.

For YMLKHLVWA [Peptide P7], at HLA-A0203, the “5-μM inhibition (%)” value is listed as 3.83% and the “15-μM inhibition (%)” value was 19.15%. At HLA-A0201, the “5-μM inhibition (%)” value stood at 8.94% and the “15-μM inhibition (%)” value was 16.50%.
